Measurements reported in patent US9113629B2, “4-amino-6-(4-substituted-phenyl)-picolinates and 6-amino-2-(4-substituted-phenyl)-pyrimidine-4-carboxylates and their use as herbicides” (DOW AGROSCIENCES LLC, priority 2013, dated 2015).
Where two headings read alike, the source gives them in different places.

Columns and labels:
[1] = system: Key Broadleaf Weed and Crop Species; assay: Post-emergent Test II herbicidal activity (Table 5); assay type: in vivo; conditions: post-emergence, 336 h, 14 days after application; for pest or weed control at 70 g/ha: application rate 70 g ai/ha; for pest or weed control at 140 g/ha: application rate 140 g ai/ha
Method in brief: (§1)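 Greenhouse post-emergent assay: seedlings (first/second true leaf) in Metro-Mix 360 were sprayed at 187 L/ha at a top rate plus twofold dilutions down to 1/16×; solvent-blank controls were included. Percent visual injury was read at 14 d.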

[2] = system: Key Grass and Sedge Weeds as well as Grass Crops; assay: Post-emergent Test II herbicidal activity (Table 6); assay type: in vivo; conditions: post-emergence, 336 h; for pest or weed control at 70 g/ha: 70 g ai/ha; for pest or weed control at 140 g/ha: 140 g ai/ha
Method in brief: as §1

[3] = ABUTH: velvetleaf (Abutilon theophrasti), read-out: Visual Growth Reduction (%) 14 Days After Application, ABUTH
[4] = AMARE: redroot pigweed (Amaranthus retroflexus), read-out: Visual Growth Reduction (%) 14 Days After Application, AMARE
[5] = BRSNN: oilseed-rape, canola (Brassica napus), read-out: Visual Growth Reduction (%) 14 Days After Application, BRSNN
[6] = CHEAL: lambsquarters (Chenopodium album), read-out: Visual Growth Reduction (%) 14 Days After Application, CHEAL
[7] = EPHHL: wild poinsettia (Euphorbia heterophylla), read-out: Visual Growth Reduction (%) 14 Days After Application, EPHHL
[8] = HELAN: sunflower (Helianthus annuus), read-out: Visual Growth Reduction (%) 14 Days After Application, HELAN
[9] = VIOTR: wild pansy (Viola tricolor), read-out: Visual Growth Reduction (%) 14 Days After Application, VIOTR
[10] = CYPES: yellow nutsedge (Cyperus esculentus), read-out: Visual Growth Reduction (%) 14 Days After Application, CYPES
[11] = DIGSA: crabgrass (Digitaria sanguinalis), read-out: Visual Growth Reduction (%) 14 Days After Application, DIGSA
[12] = ECHCG: barnyardgrass (Echinochloa crus-galli), read-out: Visual Growth Reduction (%) 14 Days After Application, ECHCG
[13] = ORYSA: rice (Oryza sativa), crop, read-out: Visual Growth Reduction (%) 14 Days After Application, ORYSA
[14] = SETFA: giant foxtail (Setaria faberi), read-out: Visual Growth Reduction (%) 14 Days After Application, SETFA
[15] = SORVU: grain sorghum (Sorghum vulgare), read-out: Visual Growth Reduction (%) 14 Days After Application, SORVU
[16] = TRZSS (wheat, Triticum aestivum), crop, read-out: Visual Growth Reduction (%) 14 Days After Application, TRZSS
[17] = ZEAMX: maize, corn (Zea mays), crop, read-out: Visual Growth Reduction (%) 14 Days After Application, ZEAMX

With `N#Cc1ccc(-c2nc(C(=O)O)c(Cl)c(N)c2F)cc1` [Compound 39] the pest or weed control at 70 g/ha [1, 3] was 30 to 44%, the pest or weed control at 140 g/ha [1, 3] was 60 to 74% and the pest or weed control at 70 g/ha [1, 4] was 0 to 29%. It also gave a pest or weed control at 140 g/ha [1, 4] of 0 to 29%, a pest or weed control at 70 g/ha [1, 5] of 0 to 29% and a pest or weed control at 140 g/ha [1, 5] of 30 to 44%. The pest or weed control at 70 g/ha [1, 6] was 85 to 94%, the pest or weed control at 140 g/ha [1, 6] was 95 to 100% and the pest or weed control at 70 g/ha [1, 7] was 85 to 94%. The pest or weed control at 140 g/ha [1, 7] was 95 to 100%, the pest or weed control at 70 g/ha [1, 8] was 95 to 100% and the pest or weed control at 140 g/ha [1, 8] was 95 to 100%. For the same compound, the pest or weed control at 70 g/ha [1, 9] was 30 to 44%, the pest or weed control at 140 g/ha [1, 9] was 30 to 44% and the pest or weed control at 70 g/ha [2, 10] was 60 to 74%. It also gave a pest or weed control at 140 g/ha [2, 10] of 75 to 84%, a pest or weed control at 70 g/ha [2, 11] of 30 to 44% and a pest or weed control at 140 g/ha [2, 11] of 45 to 59%. The pest or weed control at 70 g/ha [2, 12] was 85 to 94%, the pest or weed control at 140 g/ha [2, 12] was 85 to 94% and the pest or weed control at 70 g/ha [2, 13] was 0 to 29%. It also gave a pest or weed control at 140 g/ha [2, 13] of 0 to 29%, a pest or weed control at 70 g/ha [2, 14] of 0 to 29% and a pest or weed control at 140 g/ha [2, 14] of 30 to 44%. It also gave a pest or weed control at 70 g/ha [2, 15] of 30 to 44%, a pest or weed control at 140 g/ha [2, 15] of 60 to 74% and a pest or weed control at 70 g/ha [2, 16] of 30 to 44%. The pest or weed control at 140 g/ha [2, 16] was 45 to 59%, the pest or weed control at 70 g/ha [2, 17] was 60 to 74% and the pest or weed control at 140 g/ha [2, 17] was 60 to 74%.
